Data from US7709463B2, “Idraparinux (SanOrg34006) for treatment of venous events in patients with deep venous thrombosis” (Sanofi-Aventis, priority 2002, dated 2010).

Legend:
Type in all cases: in vivo, human
[1] = test system: patients with confirmed symptomatic proximal DVT; test: Change in thrombotic burden assessed by central adjudication committee (CUS and PLS vs baseline), phase II study
Text: (§1) The study design is illustrated in FIG. 1.
(§2) Each treatment group was to consist of 130 patients, of which at least 100 patients eligible for inclusion in the Intent-To-Treat (ITT) group. Subjects in the SanOrg34006 treatment groups were to be followed-up during a four-week period after the final assessments.
Primary efficacy parameter: change in thrombotic burden as assessed by the central adjudication committee using a 3-point ordinal outcome scale for the comparison of CUS and PLS (Perfusion Lung Scan) after 12 weeks of randomized treatment with baseline measurements (i.e. deterioration, normalization, or no relevant change) including a supplementary analysis on substantial improvement.
(§3) Secondary efficacy parameters: change in thrombotic burden using a binary scale (i.e. deterioration versus no deterioration); change of CUS on a 3-point ordinal scale; change of PLS on a 3-point ordinal scale; the composite clinical outcome (non-fatal symptomatic PE and/or recurrent DVT, death due to PE and/or DVT or unexplained, and any important change in therapeutic management of thrombotic events); coagulation markers: plasma D-dimer (fibrin fragment, released in process of thrombolysis; measure for ongoing thrombosis) and TAT (Thrombin-Antithrombin Complex) concentrations during the study treatment. • Safety

[2] = test system: patients with confirmed symptomatic proximal DVT; test: Composite clinical outcome assessed by CAC (recurrent DVT, symptomatic PE or unexplained death), phase II study
Text: as §1, §2, §3

[3] = test system: patients with confirmed symptomatic proximal DVT; test: Bleeding events during randomized treatment, phase II study
Text: as §1, §2
Primary safety parameters: incidence of major bleeding and decreased platelet count.

[4] = Plasma concentrations / population pharmacokinetics of SanOrg34006, phase II study
Method: The secondary objective was to assess population pharmacokinetics of SanOrg34006.
Plasma concentrations of SanOrg34006 were assessed within 48 h prior to the administration of SanOrg34006 in Weeks 2, 4 and 7. In addition during Week 7 within the time frames 0.5-2 h, 2-6 h, 6-48 h and 120-168 h post dose. In a subset of patients a more extensive sampling scheme was applied with pre-dose samples before each administration and the serial scheme for Week 7 also applied to Week 1 and 12.

[5] = test system: patients with confirmed symptomatic proximal DVT; test: Tolerability: adverse events, laboratory parameters, vital signs, phase II study
Text: as §1, §2
Secondary efficacy parameters: (serious) adverse events, laboratory parameters (hematology, biochemistry, coagulation status, platelet counts), and vital signs (blood pressure, heart rate, body weight).

[6] = SanOrg34006 2.5 mg SC once weekly, 12 weeks, ITT (N = 125)
[7] = SanOrg34006 5 mg SC once weekly, 12 weeks, ITT (N = 128)
[8] = SanOrg34006 7.5 mg SC once weekly, 12 weeks, ITT (N = 118)
[9] = SanOrg34006 10 mg SC once weekly, 12 weeks, ITT (N = 119)
[10] = Week 12 vs first administration
[11] = oral warfarin, 12-week course, ITT (N = 124)
[12] = oral warfarin, all patients with randomized treatment (N = 132)

## CO[C@H]1O[C@H](COS(=O)(=O)O)[C@@H](O[C@@H]2O[C@@H](C(=O)O)[C@@H](O[C@H]3O[C@H](COS(=O)(=O)O)[C@@H](O[C@@H]4O[C@H](C(=O)O)[C@@H](O[C@H]5O[C@H](COS(=O)(=O)O)[C@@H](OC)[C@H](OC)[C@H]5OC)[C@H](OC)[C@H]4OC)[C@H](OS(=O)(=O)O)[C@H]3OS(=O)(=O)O)[C@H](OC)[C@H]2OC)[C@H](OS(=O)(=O)O)[C@H]1OS(=O)(=O)O [SanOrg34006, methyl O-(2,3,4-tri-O-methyl-6-O-sulfo-α-D-glucopyranosyl)-(1→4)-O-(2,3-di-O-methyl-β-D-glucopyranosyluronic acid)-(1→4)-O-(2,3,6-tri-O-sulfo-α-D-glucopyranosyl)-(1→4)-O-(2,3-di-O-methyl-α-L-idopyranosyluronic acid)-(1→4)-2,3,6-tri-O-sulfo-α-D-glucopyranoside]
[1]; [6]
  Deterioration, overall change in thrombotic burden (2-point scale): 6 (4.8) n (%)
  Deterioration, overall change in thrombotic burden (3-point scale): 6 (4.8) n (%)
  No Deterioration, overall change in thrombotic burden (2-point scale): 119 (95.2) n (%)
  No Relevant Change, overall change in thrombotic burden (3-point scale): 87 (69.6) n (%)
  Normalization, overall change in thrombotic burden (3-point scale): 32 (25.6) n (%)
[1]; [7]
  Deterioration, overall change in thrombotic burden (2-point scale): 8 (6.3) n (%)
  Deterioration, overall change in thrombotic burden (3-point scale): 8 (6.3) n (%)
  No Deterioration, overall change in thrombotic burden (2-point scale): 120 (93.8) n (%)
  No Relevant Change, overall change in thrombotic burden (3-point scale): 89 (69.5) n (%)
  Normalization, overall change in thrombotic burden (3-point scale): 31 (24.2) n (%)
[1]; [8]
  Deterioration, overall change in thrombotic burden (2-point scale): 8 (6.8) n (%)
  Deterioration, overall change in thrombotic burden (3-point scale): 8 (6.8) n (%)
  No Deterioration, overall change in thrombotic burden (2-point scale): 110 (93.2) n (%)
  No Relevant Change, overall change in thrombotic burden (3-point scale): 81 (68.6) n (%)
  Normalization, overall change in thrombotic burden (3-point scale): 29 (24.6) n (%)
[1]; [9]
  Deterioration, overall change in thrombotic burden (2-point scale): 15 (12.6) n (%)
  Deterioration, overall change in thrombotic burden (3-point scale): 15 (12.6) n (%)
  No Deterioration, overall change in thrombotic burden (2-point scale): 104 (87.4) n (%)
  No Relevant Change, overall change in thrombotic burden (3-point scale): 74 (62.2) n (%)
  Normalization, overall change in thrombotic burden (3-point scale): 30 (25.2) n (%)
[1]; SanOrg34006 doses tested
  efficacy compared with warfarin: No differences in efficacy
[1]; tested doses 2.5-10 mg
  dose-response relationship for primary and secondary efficacy endpoints: No statistically significant dose-response relationship
[2]; [6]
  No fatal or non-fatal recurrent DVT, symptomatic PE or unexplained death (composite clinical outcome): 125 (100.0) n (%)
  Yes: fatal or non-fatal recurrent DVT, symptomatic PE or unexplained death (composite clinical outcome): 0 (0.0) n (%)
[2]; [7]
  No fatal or non-fatal recurrent DVT, symptomatic PE or unexplained death (composite clinical outcome): 126 (98.4) n (%)
  Yes: fatal or non-fatal recurrent DVT, symptomatic PE or unexplained death (composite clinical outcome): 2 (1.6) n (%)
[2]; [8]
  No fatal or non-fatal recurrent DVT, symptomatic PE or unexplained death (composite clinical outcome): 118 (100.0) n (%)
  Yes: fatal or non-fatal recurrent DVT, symptomatic PE or unexplained death (composite clinical outcome): 0 (0.0) n (%)
[2]; [9]
  No fatal or non-fatal recurrent DVT, symptomatic PE or unexplained death (composite clinical outcome): 116 (97.5) n (%)
  Yes: fatal or non-fatal recurrent DVT, symptomatic PE or unexplained death (composite clinical outcome): 3 (2.5) n (%)
[3]; in vivo
  dose group outcome under stopping rule for major bleedings: prematurely discontinued
[4]; 2.5 mg SanOrg34006
  plasma concentrations relative to levels associated with an increased bleeding risk: remained below the levels associated with an increased bleeding risk
[4]; 2.5 mg dose group
  share of patient population with plasma levels 'too low' in terms of the ACCP guidelines: 75%
[4]; 2.5-10 mg once weekly
  dose proportionality of pharmacokinetics: Dose-proportional
[4]; [10]
  AUC values at steady state relative to first administration: twice as high
  trough concentrations at steady state relative to first administration: three times as high
[4]; dose of 2.5 mg, once a week
  anti-Xa activity corresponding with plasma trough levels: 0.09-0.26 anti-Xa U/mL
  plasma trough levels (Cmin): 126 ± 63 ng/mL
[4]; once-weekly administration
  time at which steady state had been reached: Week 12
[5]; in vivo
  tolerability in terms of adverse events (other than bleeding events), laboratory parameters, and vital signs: generally well tolerated

## CC(=O)CC(c1ccccc1)c1c(O)c2ccccc2oc1=O (centres unmarked) [Warfarin, warfarin, reference compound]
[1]; [11]
  Deterioration, overall change in thrombotic burden (2-point scale): 9 (7.3) n (%)
  Deterioration, overall change in thrombotic burden (3-point scale): 9 (7.3) n (%)
  No Deterioration, overall change in thrombotic burden (2-point scale): 115 (92.7) n (%)
  No Relevant Change, overall change in thrombotic burden (3-point scale): 84 (67.7) n (%)
  Normalization, overall change in thrombotic burden (3-point scale): 31 (25.0) n (%)
[2]; [11]
  Yes: fatal or non-fatal recurrent DVT, symptomatic PE or unexplained death (composite clinical outcome): 2 (1.6) n (%)
[3]; [12]
  Any Bleeding during randomized treatment: 11 (8.3) n (%)
  Major Bleeding during randomized treatment: 1 (0.8) n (%)
  No Major Bleeding during randomized treatment: 131 (99.2) n (%)
[5]; all SanOrg34006 doses, warfarin
  tolerability in terms of adverse events (other than bleeding events), laboratory parameters, and vital signs: generally well tolerated
